Experimental data reported in paper PMC5587747, “A natural chalcone induces apoptosis in lung cancer cells: 3D-QSAR, docking and an in vivo/vitro assay” (Scientific Reports, 2017).
Where two headings read alike, the source gives them in different places.

Columns and labels:
S180-bearing mice = experiment: In vivo antitumor activity in S180 implanted mice; conditions: 25 mg/kg oral daily, 12 days
Method: The animal experiments were carried out according to the National Institute of Health Guide for the Care and Use of Laboratory Animals. And the use of experimental animals was approved by the Animal Ethics Committee of Shenyang Pharmaceutical University. Male Kunming mice, were housed in separate cages under standard conditions (20–24 °C), relative humidity (55% ± 5%) and a 12 h light/12 h dark cycle, and allowed to acclimatize for 3 days prior to the start of experiment. Cultured S180 cells were harvested and washed with sterilized PBS (pH 7.2) three times and resuspended at a density of 6 × 10^6 cells/ml. Mice received subcutaneous implants of 0.2 mL/mouse on the right flank by means of hypodermic injection. Then the mice were divided randomly into 5 groups, including model, positive control and treatment groups with 10 mice in each group after inoculation for 24 h. […] Both groups received oral administrations via an intubation needle every day. […] The weight of the mice was recorded every day throughout the experiment. Finally, the mice were sacrificed by cervical dislocation just 2 h after the last administration. Then the tumor and spleen tissues were harvested and weighed immediately. After that the in vivo tumor inhibition ratio was calculated as: Inhibition ratio (%) = 100((A−B)/A), in which A represents the average tumor weight of the control group and B is recorded as the tumor weight of the administration group. Then, the spleen index was recorded using the following formula:
Spleen index = the final weight of spleen (mg)/the final average body weight (g) without tumor.

H292 cells = experiment: MTT cytotoxicity assay, H292 cells; format: cell-based, human
Method: (§1) The cytotoxicities of the tested flavonoids were assayed in ten human lung cancer cell lines (A549, H226, H358, H522, H292, H1944, H460, H1792, SW1573, and Calu-1) using MTT reduction assay. Cisplatin (DDP) was selected as a positive control. Compounds 1–37 were dissolved in DMSO to obtain a clear solution of 1 M, which was diluted to 400 mM, 200 mM, 100 mM, 75 mM, 50 mM, 37.5 mM, 25 mM, 10 mM and 1 mM respectively as stock solutions. The DMSO concentration in the medium was kept below 0.10%. Moreover, the stability of tested compounds in experimental buffer was confirmed at 24 h and 48 h respectively by means of HPLC analysis. Then the human lung cancer cells were placed in 96-well culture plates (5 × 10^4 cells/well) and incubated for 24 h. Then, the cells were pretreated with different concentrations of test samples (gradient concentrations 1.0, 10.0, 25.0, 37.5, 50, 75, 100, 200, 400, 1000 μM for compounds 1–37 and DDP) for 48 h. And cell growth was measured by MTT assays. The cytotoxicities against the lung cancer cells were determined systematically and expressed as IC50 value.

H358 = experiment: MTT cytotoxicity assay, H358 cells; format: cell-based, human; conditions: DDP 10 μM
Method: as §1

H226 = experiment: MTT cytotoxicity assay, H226 cells; format: cell-based, human; conditions: DDP 10 μM
Method: as §1

H1944 = experiment: MTT cytotoxicity assay, H1944 cells; format: cell-based, human; conditions: DDP 10 μM
Method: as §1

H460 = experiment: MTT cytotoxicity assay, H460 cells; format: cell-based, human; conditions: DDP 10 μM
Method: as §1

H522 = experiment: MTT cytotoxicity assay, H522 cells; format: cell-based, human; conditions: DDP 10 μM
Method: as §1

H1792 = experiment: MTT cytotoxicity assay, H1792 cells; format: cell-based, human; conditions: DDP 10 μM
Method: as §1

Calu-1 = experiment: MTT cytotoxicity assay, Calu-1 cells; format: cell-based, human; conditions: DDP 10 μM
Method: as §1

SW1573 = experiment: MTT cytotoxicity assay, SW1573 cells; format: cell-based, human; conditions: DDP 10 μM
Method: as §1

A549 = experiment: MTT cytotoxicity assay, A549 cells; format: cell-based, human; conditions: DDP 10 μM
Method: as §1

[1] = Homo sapiens, NCI-H292, H292 cells, MTT, 48 h, Table S2, read-out: IC50
[2] = Homo sapiens, NCI-H292, H292 cells, Table S2, read-out: pIC50 (converted)
[3] = Homo sapiens, NCI-H292, H292 cells, MTT, 48 h, read-out: IC50

Compound | IC50 (H292 cells; [1]) [µM] | IC50 (H292 cells; [2]) [µM] | also measured
O=P1(N(CCCl)CCCl)NCCCO1 (stereo not shown) [CTX, Cyclophosphamide, reference compound] | – | – | Body weight/g After experiment (S180-bearing mice): 28.09 ± 0.56 g; Body weight/g Before experiment (S180-bearing mice): 35.97 ± 0.89 g; Inhibitory rate (%) (S180-bearing mice): 80.75%; Tumor weight/g (S180-bearing mice; mean ± SE): 1.55 ± 0.30 g
COc1cc(OC)c(Cl)c(-c2cc(=O)c3ccc4occc4c3o2)c1Cl [Compound 1] | 490 | 490 | –
O=c1cc(-c2ccccc2)oc2c1c(O)cc1occc12 [Compound 3, kanjone] | > 1000 | > 1000 | –
O=c1cc(-c2ccc(O)cc2)oc2c1ccc1occc12 [Compound 4] | 705 | 705 | –
O=c1cc(-c2ccc3c(c2)OCO3)oc2c1ccc1occc12 [Compound 6] | > 1000 | > 1000 | –
O=c1cc(-c2ccccc2)oc2c1cc(O)c1occc12 [Compound 8] | 750 | 750 | –
COc1cc2c(=O)cc(-c3ccccc3)oc2c2ccoc12 [Compound 9, 6-hydroxy,3-methoxyfuro[8,7:4′′,5′′]flavone] | 975 | 975 | –
COc1c(-c2ccccc2)oc2c(ccc3occc32)c1=O [Compound 10] | 794 | 794 | –
COc1c(-c2ccccc2)oc2c(cc(O)c3occc32)c1=O [Compound 11, demethylate kanjone] | > 1000 | > 1000 | –
COc1c(-c2ccc3c(c2)OCO3)oc2c3c(ccc2c1=O)OC(C)(C)C=C3 [Compound 12, pongapinnol-C] | – | 100 | IC50 (H292 cells; [3]): 100 µM
COc1cccc(-c2cc(=O)c3ccc4occc4c3o2)c1 [Compound 13] | 615 | 615 | –
O=c1cc(-c2cccc(O)c2)oc2c1ccc1occc12 [Compound 14, isopongaglabol] | 630 | 630 | –
COc1cc(OC)cc(-c2cc(=O)c3ccc4occc4c3o2)c1 [Compound 15] | – | 158 | IC50 (H292 cells; [3]): 158 µM
COc1ccc(OC)c(-c2cc(=O)c3ccc4occc4c3o2)c1 [Compound 16] | 374 | 374 | –
COc1ccc(O)cc1-c1oc2c(ccc3occc32)c(=O)c1OC [Compound 18] | > 1000 | > 1000 | –
COc1cc(O)cc(-c2oc3c(ccc4occc43)c(=O)c2OC)c1 [Compound 19] | > 1000 | > 1000 | –
COc1c2ccoc2cc2oc(-c3ccccc3)cc(=O)c12 [Compound 20] | > 1000 | > 1000 | –

Compound | IC50 (H292 cells; [1]) [µM] | IC50 (H292 cells; [2]) [µM] | also measured
COc1c2ccoc2cc2oc(-c3ccc4c(c3)OCO4)cc(=O)c12 [Compound 22] | > 1000 | > 1000 | –
COc1ccc2c(=O)c(OC)c(-c3ccc4c(c3)OCO4)oc2c1 [Compound 24] | 394 | 394 | –
COc1ccc2c(=O)c(OC)c(-c3ccc(OC)c(OC)c3)oc2c1 [Compound 25] | 1000 | 1000 | –
COc1ccc(-c2coc3cc(CC=C(C)C)ccc3c2=O)cc1 [Compound 26] | – | 294 | IC50 (H292 cells; [3]): 294 µM
COc1ccc(-c2coc3cc(O)ccc3c2=O)cc1 [Compound 27] | > 1000 | > 1000 | –
O=c1c(-c2ccc(O)cc2)coc2cc(O)cc(O)c12 [Compound 28] | 631 | 631 | –
O=c1c(-c2ccc3c(c2)OCO3)coc2cc(O)ccc12 [Compound 29] | 1000 | 1000 | –
COc1ccc(-c2coc3c(O)c(O)ccc3c2=O)cc1O [Compound 30] | 501 | 501 | –
COc1cc(O)cc(-c2coc3cc(O)ccc3c2=O)c1 [Compound 31] | > 1000 | > 1000 | –
COc1ccc(-c2coc3c(OC)c(O)ccc3c2=O)cc1 [Compound 32] | 776 | 776 | –
COc1ccc(-c2coc3c(O)c(OC)ccc3c2=O)cc1 [Compound 33] | – | 216 | IC50 (H292 cells; [3]): 216 µM
CC1(C)C=Cc2c(ccc(C(=O)/C=C/c3ccc4c(c3)OCO4)c2O)O1 [Compound 35] | – | 61.5 | IC50 (H292 cells; [3]): 61.5 µM
CC1(C)C=Cc2c(ccc3c2O[C@H](c2ccccc2)CC3=O)O1 [Compound 36] | – | 50 | IC50 (H292 cells; [3]): 50 µM
CC1(C)C=Cc2c(ccc3c2O[C@H](c2ccc4c(c2)OCO4)CC3=O)O1 [Compound 37] | – | 61.5 | IC50 (H292 cells; [3]): 61.5 µM
N.N.[Cl][Pt][Cl] [DDP, Cisplatin, reference compound] | – | – | inhibition rate (IR %) (H358): 81.2%; inhibition rate (IR %) (H226): 87.4%; inhibition rate (IR %) (H1944): 40.4%; inhibition rate (IR %) (H460): 89.1%; inhibition rate (IR %) (H522): 69.6%; inhibition rate (IR %) (H292 cells; H292, DDP 10 μM): 91.3%; inhibition rate (IR %) (H1792): 44.6%; inhibition rate (IR %) (Calu-1): 59.1%; inhibition rate (IR %) (SW1573): 69.4%; inhibition rate (IR %) (A549): 76.4%
genistein [Compound 21] | – | – | IC50 (H292 cells; H292 cells, MTT, 48 h, Table S2, read-out: IC50): > 1000 µM; pIC50 (H292 cells; H292 cells, Table S2): < 3.000
